Experimental data: paper PMC12560410, “Multi spectroscopic investigations with molecular docking and molecular dynamics simulation of the binding mechanism of molnupiravir to bovine serum albumin” (BMC Chemistry, 2025)

Legend:
[1] = molecular target: T1, bovine serum albumin (BSA) (Bos taurus, UniProt P02769); test: Fluorescence quenching of BSA by MOL (Stern–Volmer and modified Stern–Volmer analysis, thermodynamics); type: binding; settings: for Ksv (Stern–Volmer quenching constant) / n (number of binding sites) / Kd: pH 7.4; for Kd: read-out: Log Ka (converted)
T1 construct: purchased BIOMARK laboratories (Pune, Maharashtra, India)
T1 sequence (P02769 25-607): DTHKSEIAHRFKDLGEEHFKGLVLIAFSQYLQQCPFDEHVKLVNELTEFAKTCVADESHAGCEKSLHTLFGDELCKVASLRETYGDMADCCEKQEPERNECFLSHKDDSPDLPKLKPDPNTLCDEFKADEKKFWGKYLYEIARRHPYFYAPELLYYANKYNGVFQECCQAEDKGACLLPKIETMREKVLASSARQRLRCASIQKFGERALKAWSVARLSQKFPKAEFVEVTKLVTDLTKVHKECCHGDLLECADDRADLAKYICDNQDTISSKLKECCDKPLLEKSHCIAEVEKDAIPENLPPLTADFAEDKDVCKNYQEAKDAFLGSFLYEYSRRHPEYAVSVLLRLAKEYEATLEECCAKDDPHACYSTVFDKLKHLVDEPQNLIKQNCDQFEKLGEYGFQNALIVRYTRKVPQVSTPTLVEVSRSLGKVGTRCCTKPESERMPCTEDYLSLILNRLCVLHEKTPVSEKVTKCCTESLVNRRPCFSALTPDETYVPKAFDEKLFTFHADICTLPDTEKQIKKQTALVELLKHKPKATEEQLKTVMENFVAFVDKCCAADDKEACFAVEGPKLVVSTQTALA
Procedure: The fluorescence of the tyrosine (Tyr) and tryptophan (Trp) residues observed for solutions that have a fixed BSA concentration 3 µM and different concentrations of MOL (30–180 µM) at pH 7.4. The emission spectra were obtained between 300 and 500 nm. The excitation wavelength was 295 nm, at temperatures 285, 290, 295, 303, and 308 K. […]
Utilizing the Stern–Volmer equation, the quenching mechanism was identified (Eq. 1):1 [drawing 1]
The fluorescence intensities of BSA in absence of MOL are indicated as [drawing 2] while those measured in the presence of MOL are referred to as [drawing 3] . The term [drawing 4] represents the Stern–Volmer quenching rate constant. MOL concentration represents the quencher concentration [drawing 5] .
F^0/F was plotted versus [Q], then the slope was calculated to obtain the values of Ksv as shown in the Stern–Volmer equation (Eq. 1) to assess the experimental results as shown in Fig. 3.
IFE-corrected fluorescence intensity values were calculated using the following formula: […]
The modified Stern–Volmer equation is used to determine the stoichiometry (n) and equilibrium association constant (Ka), which govern how small molecules interact with specific binding sites on a macromolecule (Eq. 2).2 [drawing 7]
where [drawing 8] represents the number of binding sites and [drawing 9] represents the binding constant, as calculated from the plots of log [(F0–F)/F] against log [Q]. The plot of the modified Stern–Volmer equation was illustrated in Fig. S2. […] The stoichiometry of the binding interaction concerning MOL and BSA was approximately 1:1, as indicated by the n value being close to unity.
The intercept and slope of the plot of ln Ka vs. 1/T were used to determine ΔS (entropy change) and ΔH (enthalpy change), respectively in accordance with the Vant’s Hoff equation (Eq. 3), as shown in Table 2.
Furthermore, the Gibbs–Helmholtz equation determines ΔG (Eq. 4).3 [drawing 10] 4 [drawing 11]
where ΔG denotes the Gibbs free energy change and R denotes the universal gas constant (8.314 J mol^−1 k^−1) while T is the absolute temperature (K). […] The negative values of both ΔH and ΔS indicate that the binding of MOL to BSA is primarily governed by hydrogen bonding and van der Waals interactions rather than hydrophobic forces. The thermodynamic results, was supported by docking analysis, confirming that hydrogen bonding and van der Waals contacts are the dominant driving forces in MOL–BSA complex formation. […] Moreover, the spontaneity of the interaction could reflect the favorable conformational stability of the MOL-BSA complex.

[2] = molecular target: T1, bovine serum albumin (BSA); test: Effect of common ions on binding affinity of MOL to BSA; settings: 297 K, pH 7.4
From the text: […] […] These findings can be used for further investigations into how different ions influence the binding affinity of MOL to BSA.
Ka′/Ka is the binding constant divided by the binding constant in the absence of the ion; r is the correlation coefficient.

[3] = molecular target: T2, bovine serum albumin (Bos taurus, UniProt P02769); test: FT-IR spectroscopy of BSA with MOL; type: binding; settings: BSA 3 µM, MOL 180 µM, pH 7.4
T2 construct: purchased BIOMARK laboratories (Pune, Maharashtra, India)
T2 sequence (P02769 25-607): as above
Procedure: FT-IR spectra of 3 µM bovine serum albumin solution in tris-HCl buffer, BSA (3 µM) in the presence of MOL (180 µM), and MOL alone (180 µM) at pH 7.4 were recorded using Tensor27—S2887 FT-IR spectrometer (Bruker, Germany) from 4000 to 1000 cm^− 1. Baseline correction and water vapor subtraction were applied prior to analysis.
FT-IR spectroscopy was utilized to examine the secondary structure of BSA in free, drug-bound forms and free drug by recording changes in spectra as shown in Fig. S5. However, slight differences were observed between these spectra. […] The results from the UV absorption and fluorescence analysis are consistent with this observation.

[4] = set-up: method as in PMID 39912659, PMID 37526305; settings: following oral administration; hydrolyzed by esterases to NHC; cited from earlier work
[5] = molecular target: T1, bovine serum albumin (BSA); test: Site marker competition (indomethacin site I, diazepam site II) for MOL binding to BSA; settings: 295 K, pH 7.4; for Kd: read-out: Log Ka (converted)
Procedure: This study was conducted using two specific site probes: indomethacin for site I and diazepam for site II. In these experiments, the concentrations of BSA and the site probes were kept constant at 3 µM and 10 µM, respectively, while the concentration of MOL was varied from 30 to 180 µM. Fluorescence intensity was measured at 350 nm with excitation at 295 nm, and all measurements were carried out at 295 K and pH 7.4. The binding equilibrium constants (Ka) of MOL to BSA alone, indomethacin-BSA, and diazepam-BSA complexes were compared.
The apparent binding constants (Ka) were calculated by plotting log[(F₀–F)/F] versus log[Q] in the absence and presence of site markers Figure S6.

[6] = molecular target: T3, BSA (Bos taurus, UniProt P02769); test: Synchronous fluorescence spectroscopy of BSA with MOL; type: binding, bovine; settings: MOL 0–180 µM, pH 7.4
T3 construct: purchased BIOMARK laboratories (Pune, Maharashtra, India)
T3 sequence (P02769 25-607): as above
Procedure: Initially, the synchronous fluorescence spectra of BSA were acquired at a concentration of 3µM, and then its mixtures with MOL ranged from 30 to 180 µM at pH 7.4. These spectra were obtained at spectral intervals of Δλ = 15 nm as well as Δλ = 60 nm, with a 10 mm path quartz cell and scanning rate of 1000 nanometers per minute (nm/min).
The polarity of the surrounding environment of the fluorescent amino acids in BSA is influenced by ligand interaction, and this has been studied using synchronous fluorescence spectroscopy. In this study, a scanning interval (Δλ) of 60 nm and 15 nm was set between the excitation and emission wavelengths, allowing for the observation of polarity alterations surrounding tyrosine (Tyr) and tryptophan (Trp) residues, respectively.
Spectra of BSA synchronous fluorescence were acquired for BSA solutions both with and without the addition of MOL (Fig. 4). […] The Ratios of Synchronous Fluorescence Quenching (RSFQ) were determined using Eq. 5 as follows: […]

[7] = van't Hoff plot of ln Ka vs 1/T, 285–308 K

ΔG (Gibbs free energy change) ([1]; 285 K): -23.915 KJ mol ^− 1
Ksv (Stern–Volmer quenching constant) ([1]; 285 K): 11100 L/mol
n (number of binding sites) ([1]; 285 K): 1.072
Kd ([1]; 285 K): 41.4 µM
ΔG (Gibbs free energy change) ([1]; 290 K): -23.546 KJ mol ^− 1
Ksv (Stern–Volmer quenching constant) ([1]; 290 K): 9635 L/mol
n (number of binding sites) ([1]; 290 K): 1.077
Kd ([1]; 290 K): 57.4 µM
difference between IFE-corrected and uncorrected Ksv ([1]; 295 K): 0.9%
ΔG (Gibbs free energy change) ([1]; 295 K): -23.252 KJ mol ^− 1
corrected Stern–Volmer constant (Ksv) ([1]; 295 K, inner filter effect (IFE) corrected): 7160 L/mol
Ksv (Stern–Volmer quenching constant) ([1]; 295 K): 7096 L/mol
n (number of binding sites) ([1]; 295 K): 1.086
Kd ([1]; 295 K): 76.3 µM
uncorrected Stern–Volmer constant (Ksv) ([1]; 295 K, uncorrected): 7096 L/mol
ΔG (Gibbs free energy change) ([1]; 303 K): -22.276 KJ mol ^− 1
Ksv (Stern–Volmer quenching constant) ([1]; 303 K): 5288 L/mol
n (number of binding sites) ([1]; 303 K): 1.066
Kd ([1]; 303 K): 144 µM
ΔG (Gibbs free energy change) ([1]; 308 K): -21.618 KJ mol ^− 1
Ksv (Stern–Volmer quenching constant) ([1]; 308 K): 3800 L/mol
n (number of binding sites) ([1]; 308 K): 1.055
Kd ([1]; 308 K): 216 µM
fluorescence quenching mechanism ([1]; Ksv inversely proportional to temperature): static interaction
ΔH (enthalpy change) [1, 7]: -52.434 KJ.mol ^− 1
ΔS (entropy change) [1, 7]: -99.63 J mol^− 1K^− 1
Ka’/ Ka (binding constant divided by binding constant in absence of the ion) ([2]; Ca^2+ added (75 µM)): 0.9046
Kd ([2]; Ca^2+ added (75 µM), read-out: Ka’ (binding constant) (converted)): 674 µM
Ka’/ Ka (binding constant divided by binding constant in absence of the ion) ([2]; Co^2+ added (75 µM)): 1.6233
Kd ([2]; Co^2+ added (75 µM), read-out: Log Ka (converted)): 375 µM
Ka’/ Ka (binding constant divided by binding constant in absence of the ion) ([2]; Cu^2+ added (75 µM)): 0.2573
Kd ([2]; Cu^2+ added (75 µM), read-out: Log Ka (converted)): 2370 µM
Ka’/ Ka (binding constant divided by binding constant in absence of the ion) ([2]; No ion): 1
Kd ([2]; No ion, read-out: Ka’ (binding constant) (converted)): 609 µM
amide band of BSA after addition of MOL [3]: shifted from 1610 cm^−1 to 1636 cm^−1
Kd ([5]; in presence of diazepam (site II probe, 10 µM)): 361 µM
Kd ([5]; in presence of indomethacin (site I probe, 10 µM)): 56.3 µM
preferential binding site on BSA ([5]; site marker displacement): Sudlow’s site II
red shift in λmax of BSA synchronous fluorescence ([6]; Δλ = 15 nm (Tyr residues)): about 2 nm
shift in λmax of BSA synchronous fluorescence ([6]; Δλ = 60 nm): no shift was detected
Structure (SMILES): CC(C)C(=O)OC[C@H]1O[C@@H](n2ccc(NO)nc2=O)[C@H](O)[C@@H]1O [MOL, Molnupiravir]
systemic plasma concentration of parent drug [4]: no significant concentrations of the parent drug are detected systemically in plasma
